Test results from patent US20260374793A1, “MITOCHONDRIA SPECIFIC TRANSCRIPTION INHIBITORS” (LUNELLA BIOTECH, INC., priority 2023, published 2026).

What was measured:
MCF-7 cells [1] = experiment: Extracellular acidification rate (ECAR), glycolytic function, MCF-7; assay type: cell-based, human
Text: FIGS. 7A-7D show glycolytic function, glycolysis, glycolytic capacity, and glycolytic reserve, respectively, for different concentrations of Compound [I] on MCF-7 cells.

MCF-7 cells [2] = experiment: 3D anchorage independent growth (mammosphere formation) assay, MCF-7; assay type: cell-based, human
Text: The following paragraphs summarize data for Compound [I]. It should be appreciated that preliminary results for other embodiments are consistent with the results for Compound [I], but analysis is ongoing. FIGS. 1A-1C show mammosphere formation results, SRB assay results on MCF-7 cells, and SRB assay results on BJ1-hTERT cells, for different concentrations of Compound [I]. The asterisks indicate P-value, with ** indicating P<0.01, *** indicating P<0.001, and **** indicating P <0.0001. […] FIGS. 1B and 1C show results of the SRB assay for (B) MCF-7 cells and (C) hTERT-BJ1 cells.
(§1) FIGS. 5A and 5B show IC50 curves for Compound [I] calculated using GraphPad Prism. The results are based on mammosphere formation assay of Compound [I] on both colonies and spheres, for MCF-7 cells (FIG. 5A), and for MDA-MB-231 cells (FIG. 5B).
(§2) 3D Anchorage Independent Growth Assay: This assay is also referred to as the mammosphere formation assay. A single-cell suspension was prepared using enzymatic, and manual disaggregation (25-g needle). Then, cells were plated at a density of 500 cells/cm^2 in mammosphere medium (DMEM-F12+1× B-27 Plus Supplement+20 ng/ml EGF+Pen/Strep) under non-adherent conditions, in culture dishes pre-coated with (2-hydroxyethylmethacrylate) (poly-HEMA, Sigma Aldrich Inc.), called “mammosphere plates.” Cells were grown for 5 days and maintained in a humidified incubator at 37 °C. After 5 days of culture, 3D-mammospheres >50 μm were counted using an eye piece (“graticule”), and the percentage of cells plated which formed spheres was calculated and is referred to as percent mammosphere formation, and was normalized to one (1=100% MFE). 3D mammosphere formation efficiency (MFE) was analyzed in both the ATP-low and ATP-high sub-populations of cells. All 3D mammosphere experiments were performed in triplicate, at least 3 times independently.

MDA-MB-231 cells [3] = experiment: Chorio-allantoic membrane (CAM) assay in chicken eggs, tumor growth; assay type: in vivo; conditions: daily for 8 days; tumors weighed day E18; FIG. 8A
Experimental: The well-established chorio-allantoic membrane (CAM) assay in chicken eggs were used to quantitatively measure tumor growth in MDA-MB-231 cells. An inoculum of 1×10^6 MDA-MB-231 cells was added onto the Upper CAM of each egg on Day 9 and then eggs were then randomized into groups. On day 10, tumors were detectable and were then treated daily for 8 days with vehicle alone (1% DMSO in PBS), or Compound [I]. After 8 days of drug administration, on day E18, all tumors were weighed. […] Bar graphs are shown as the mean±SEM; t-test, two tailed test: * P<0.05, **** P<0.0001.

chicken embryo = experiment: In vivo chicken embryo toxicity assessment (CAM assay)
MDA-MB-231 cells [4] = experiment: CAM assay in chicken eggs, spontaneous tumor metastasis (qPCR of human Alu sequences); assay type: in vivo; conditions: daily for 8 days, Lower CAM, FIG. 8B
Experimental: The CAM assay was used in chicken eggs to quantitatively measure spontaneous tumor metastasis in MDA-MB-231 cells. An inoculum of 1×10^6 MDA-MB-231 cells was added onto the Upper CAM of each egg on Day 9 and then eggs were then randomized into groups. On day 10, tumors were detectable and they were then treated daily for 8 days, with vehicle alone (1% DMSO in PBS), or Compound [I]. After 8 days of drug administration, the Lower CAM was collected to evaluate the number of metastatic cells and analyzed by qPCR with specific primers for Human Alu sequences. […] Bar graph is shown as the mean±SEM; t-test, two tailed test: ns P >0.05, ** P <0.01.

MCF-7 cells [5] = experiment: Seahorse XF96 oxygen consumption rate (OCR), mitochondrial respiration, MCF-7; assay type: cell-based, human
Experimental: FIGS. 6A-6D show mitochondrial respiration, basal respiration, maximal respiration, and ATP production, respectively, for different concentrations of Compound [I] on MCF-7 cells. The metabolic profile MCF-7 was performed using the Seahorse XF96 Analyzer after 6 days of treatment with Compound [I].

MDA-MB-231 cells [6] = experiment: 2D colony formation, MDA-MB-231; assay type: cell-based
Text: FIGS. 4A and 4B show the effect of Compound [I] at different concentrations on MDA-MB-231 colony formation (A) representative phase images of 2D-colonies, and (B) expressed in terms of colony formation relative to the control. […] Bar graphs are shown as the mean±SEM; t-test, two-tailed test: **** P<0.0001.
as §1

MDA-MB-231 cells [7] = experiment: 3D anchorage independent growth (mammosphere formation) assay, MDA-MB-231; assay type: cell-based
Experimental: Bar graphs are shown as the mean±SEM; t-test, two-tailed test: * P<0.05, ** P<0.01, **** P<0.0001.
as §1, §2

MCF-7 cells [8] = experiment: 2D colony formation, MCF-7; assay type: cell-based, human
Text: FIGS. 2A and 2B show the effect of Compound [I] at different concentrations on MCF-7 colony formation (A) in petri dishes, and (B) expressed in terms of colony formation relative to the control.
as §1

MCF-7 cells [9] = experiment: SRB cell viability assay, MCF-7; assay type: cell-based; conditions: Homo sapiens, MCF7, cytotoxic starting at, FIG. 1B, read-out: concentration at which cytotoxicity starts
Text: (§3) The mitochondria specific transcription inhibitor (MSTI) compounds disclosed herein represent a new class of compounds having exceptional selectivity and activity towards cancer cells. Embodiments of the MSTI compounds disclosed herein may be used as therapeutic agent to selectively eradicate CSCs for treating and/or preventing tumor recurrence and/or metastasis. […] This assay measures the amount of residual protein that adheres to tissue culture dishes and is a surrogate marker of cell viability.
(§4) Reagents and Model Cell Lines: It should be apparent that other cell lines may be used without departing from the present approach. The human breast adenocarcinoma cell line MCF-7 was from the American Type Culture Collection (ATCC). hTERT-BJ1 cells were from Clontech, Inc. MCF-7 and hTERT-BJ 1 cells were grown in DMEM supplemented with 10% fetal bovine serum, GlutaMAX and 1% penicillin-streptomycin and incubated at 37C in a humidified 5% C02 incubator. The medium was changed 2-3 times/week.
(§5) The present approach includes methods of confirming cell viability. Persons of skill in the art may select one or more methods for confirming cell viability suitable for the particular embodiment. […] Finally, the protein-bound dye was dissolved in a 10 mM Tris, pH 8.8 solution and read using the plate reader at 540-nm. […]

[10] = In vivo chicken embryo toxicity assessment (CAM assay); conditions: chicken, embryo
[11] = SRB cell viability assay, hTERT-BJ1; assay type: cell-based; conditions: human, hTERT-BJ1 cells, cytotoxic starting at about, FIG. 1C, read-out: concentration at which cytotoxicity starts
Text: as §3, §4, §5

mice = conditions: oral; four-week trial in mice; cited from earlier work
[12] = test system: mitochondrial RNA polymerase (POLRMT); conditions: as a POLRMT inhibitor; cited from earlier work
[13] = test system: human cancer cell xenografts; conditions: oral; cited from earlier work

For `CCN(CC(=O)NCCN(C)C)C(=O)[C@@H](C)Oc1ccc2c(-c3ccc(NC(=O)CCCCCCCCCCC[P+](c4ccccc4)(c4ccccc4)c4ccccc4)cc3Cl)cc(=O)oc2c1.[Cl-]` [Compound [I]], which glycolysis (MCF-7 cells [1]; FIG. 7B) is on record?
Its glycolysis is “No significant changes”.

And the glycolytic capacity (MCF-7 cells [1]; FIG. 7C)?
Its glycolytic capacity is “No significant changes”.

And the glycolytic reserve (MCF-7 cells [1]; FIG. 7D)?
The glycolytic reserve was “No significant changes”.

And the “glycolysis (overall conclusion)” value (MCF-7 cells [1]; FIGS. 7A-7D)?
The value was “does not affect glycolysis”.

And the “inhibition of MCF-7 spheres” value (MCF-7 cells [2]; 10 μM, FIG. 1A)?
Its value is “near complete inhibition”.

What about the “inhibition of MCF-7 spheres” value (MCF-7 cells [2]; at all concentrations, FIG. 1A) of the same molecule?
Its value is “inhibition of MCF-7 spheres at all concentrations”.

And the tumor growth (MDA-MB-231 cells [3])?
Its tumor growth is “potently inhibits tumor growth”.

And the Alive (chicken embryo; 100 μM, of 17 embryos)?
The Alive was 17.

And the Dead (chicken embryo; 100 μM, of 17 embryos)?
The Dead was 0.

And the Alive (chicken embryo; 250 μM, of 16 embryos)?
The Alive was 16.

And the Dead (chicken embryo; 250 μM, of 16 embryos)?
Its Dead is 0.

And the Alive (chicken embryo; 500 μM, of 16 embryos)?
Its Alive is 14.

And the Dead (chicken embryo; 500 μM, of 16 embryos)?
The Dead was 2.

And the “toxicity towards normal cells” value (chicken embryo; at concentrations several orders of magnitude above those with potent activity, FIG. 9)?
Its value is “not toxic towards normal cells”.

And the metastasis (MDA-MB-231 cells [4])?
The metastasis was “targets and prevent cancer metastasis”.

And the “oxygen consumption rate (OCR)” value (MCF-7 cells [5]; 0.5 μM and 1 μM, after 6 days of treatment, FIG. 6A)?
Its value is “reduction”.

What about the basal respiration (MCF-7 cells [5]; 0.5 μM and 1 μM, after 6 days of treatment, FIG. 6B) of the same molecule?
The basal respiration was “decreases”.

And the maximal respiration (MCF-7 cells [5]; 0.5 μM and 1 μM, after 6 days of treatment, FIG. 6C)?
Its maximal respiration is “decreases”.

What about the ATP production (MCF-7 cells [5]; 0.5 μM and 1 μM, after 6 days of treatment, FIG. 6D) of the same molecule?
Its ATP production is “decreases”.

And the mitochondrial respiration (MCF-7 cells [5]; overall conclusion)?
Its mitochondrial respiration is “specifically inhibits mitochondrial respiration”.

What about the MDA-MB-231 colony formation (MDA-MB-231 cells [6]; 2D colonies, FIGS. 4A-4B, **** P<0.0001) of the same molecule?
The MDA-MB-231 colony formation was “significantly decreases”.

What about the “effect on colony formation versus sphere formation” value (MDA-MB-231 cells [6]; MDA-MB-231, from IC50 values of Table 1) of the same molecule?
The value was “more effective on colony formation, as compared to sphere formation”.

What about the “MDA-MB-231 3D mammosphere formation” value (MDA-MB-231 cells [7]; FIG. 3A) of the same molecule?
Its value is “significantly decreased”.

What about the MCF-7 colony formation (MCF-7 cells [8]; 2D colonies, FIG. 2A) of the same molecule?
Its MCF-7 colony formation is “significantly decreased”.

And the “effect on colony formation versus sphere formation” value (MCF-7 cells [8]; MCF-7, from IC50 values of Table 1)?
Its value is “more effective on colony formation, as compared to sphere formation”.

Which inhibition at 2.5 µM (MCF-7 cells [2]; Homo sapiens, MCF7, 2.5 μM, FIG. 1A, read-out: inhibition of MCF-7 spheres) does the source give for `CCN(CC(=O)NCCN(C)C)C(=O)[C@@H](C)Oc1ccc2c(-c3ccc(NC(=O)CCCCCCCCCCC[P+](c4ccccc4)(c4ccccc4)c4ccccc4)cc3Cl)cc(=O)oc2c1.[Cl-]` [Compound [I], [12-[3-chloro-4-[7-[(1R)-2-[2-[2-(dimethylamino)ethylamino]-2-oxo-ethyl]-ethyl-amino]-1-methyl-2-oxo-ethoxy]-2-oxo-chromen-4-yl]anilino]-12-oxo-dodecyl]-triphenyl-phosphonium chloride] here?
The inhibition at 2.5 µM was > 50%.

And the IC50 (MCF-7 cells [2]; Homo sapiens, MCF7, MCF-7 spheres, GraphPad Prism, FIG. 5A)?
Its IC50 is 3.2 µM.

And the MCC (MCF-7 cells [9])?
Its MCC is 1000 nM.

What about the survival at 100 µM ([10]; 100 μM, read-out: % Alive) of the same molecule?
Its survival at 100 µM is 100%.

What about the mortality at 100 µM ([10]; 100 μM, read-out: % Dead) of the same molecule?
Its mortality at 100 µM is 0%.

And the survival at 250 µM ([10]; 250 μM, read-out: % Alive)?
Its survival at 250 µM is 100%.

What about the mortality at 250 µM ([10]; 250 μM, read-out: % Dead) of the same molecule?
Its mortality at 250 µM is 0%.

And the survival at 500 µM ([10]; 500 μM, read-out: % Alive)?
The survival at 500 µM was 87.5%.

And the mortality at 500 µM ([10]; 500 μM, read-out: % Dead)?
The mortality at 500 µM was 12.5%.

What about the IC50 (MDA-MB-231 cells [6]; Homo sapiens, MDA-MB-231 colonies, GraphPad Prism, FIG. 5B) of the same molecule?
Its IC50 is 1.5 µM.

What about the IC50 (MDA-MB-231 cells [7]; Homo sapiens, MDA-MB-231 spheres, GraphPad Prism, FIG. 5B) of the same molecule?
The IC50 was 8.2 µM.

And the IC50 (MCF-7 cells [8]; Homo sapiens, MCF7, MCF-7 colonies, GraphPad Prism, FIG. 5A)?
The IC50 was 0.7 µM.

What about the IC100 (MCF-7 cells [8]; Homo sapiens, MCF7, complete inhibition, FIG. 2B, read-out: concentration from which MCF-7 colony formation is completely inhibited) of the same molecule?
The IC100 was 2.5 µM.

And the MCC [11]?
Its MCC is ~2500 nM.

With `C[C@@H](Oc1ccc2c(-c3ccc(F)cc3Cl)cc(=O)oc2c1)C(=O)N1CCC[C@H](C(=O)O)C1` [POLRMT inhibitor] as the molecule, how does the “OXPHOS dysfunction or toxicity” value (mice) read?
The value was “no evidence of OXPHOS dysfunction or toxicity”.

What about the “mitochondrial DNA expression” value [12] of the same molecule?
Its value is “inhibits mitochondrial DNA expression”.

What about the anti-tumor effects [13] of the same molecule?
The anti-tumor effects was “strong anti-tumor effects”.
